# How the values were obtained:
# [1] = pharmacokinetic drug-drug interaction after co-administration in acute rat model; format: in vivo
# Description: To assess if AZD9977 and eplerenone cause pharmacokinetic drug-drug interaction in the rat urine electrolyte excretion model, data were visually explored and a non-compartmental analysis was applied using a linear trapezoidal and linear interpolation. There was no clear trend of pharmacokinetic drug-drug interaction and further analysis was therefore omitted. For all pharmacokinetic-pharmacodynamics analyses Phoenix WinNonlin version 6.4, NMLE version 1.3 (Certara USA, Inc., Princeton, NJ) was used. […]
# squares). Log Mean ± log SD. N=2-9 per time point. […]
# hrs (25th; 75th percentile: 60; 72), respectively. […]
# respectively. AUC was calculated using a non-compartmental analysis with linear trapezoidal and linear interpolation method, as implemented in Phoenix® WinNonlin® version 6.4, NMLE version 1.3 (Certara USA, Inc., Princeton, NJ). […]
# [2] = test system: male Sprague Dawley rats on low salt diet; assay: acute urinary electrolyte excretion in salt deprived rats; format: in vivo, rat; conditions: 100 mg kg^-1 AZD9977 co-administered with 10 or 30 mg kg^-1 eplerenone
# Procedure: Experimental procedures to assess electrolytes effects in vivo were approved by the local ethics review committee on animal experiments in the Gothenburg region (EA 141-2010). […] Animals had environmental enrichment such as nest pads, nesting box, running ladder and aspen chew sticks. Rats were fed a low salt diet ([…] with 0.02% NaCl, […], Sweden) for 72h prior to dosing to increase endogenous aldosterone levels. […] Immediately following dosing, rats were placed in metabolic cages with free access to drinking water but no food. Urine was collected for 8 hours to determine total electrolyte (Na^+ and K^+) content as well as total urinary volume. Urine was collected at room temperature with no additives. Urine was analyzed for Na^+ and K^+ content on a Radiometer ABL 700 blood gas analyzer (Radiometer, Copenhagen, Denmark).
# [3] = test system: uni-nephrectomised male Sprague-Dawley rats; assay: organ protection in uni-nephrectomised rats on high-salt diet and aldosterone infusion; format: in vivo, rat; conditions: for UACR 2w: 2 weeks; for average renal pathology score: AZD9977 30 and 100 mg kg^-1 d^-1, eplerenone 10 and 30 mg kg^-1 d^-1; for UACR compared to vehicle treated animals: admixed in diet for four weeks
# Procedure: The study on uni-nephrectomised rats was carried out by PreClinOmics (Indianapolis, Indiana, USA) and the study protocol was approved under the provisions outlined in PreClinOmics IACUC ethical application proposal #2013–184. […] The rats were maintained on Purina 5001 standard rodent chow ad libitum during facility acclimation (7 days). Animals were housed 2 rats/cage with a standard 12 hour light cycle and were kept at 22 to 25°C. […] Following mini pump implantation, animals were monitored daily for any clinical signs (especially inflammation at the subcutaneous incision site) for 1 week. […] Drinking water was supplemented with 0.3% KCl to prevent hypokalemia. Standard diet (5001, Purina Teklad, USA) was admixed with 6% NaCl and including test substances (Teklad #9386, Purina Teklad, USA) for the remainder of the study. Animals were assigned to treatment groups (n = 8) based on body weight before pump implantation. […] The test substances were provided in powder form to Purina Teklad for pelleting in Teklad 9386 diet at 0.18, 0.54 or 1.8 g kg^-1 diet. […] Test diets were fed ad libitum for 4 weeks. Animals were placed in standard rodent metabolic cages, on 3 separate occasions, with food and water for collection of 24 hour urine samples at baseline and 2 and 4 weeks after pump implantation. Urine samples were collected at room temperature without additives. Urine volume was measured using a graduated cylinder. Urine creatinine (Beckman, OSR6178) was assayed from fresh sample. […] For details on time points, see Method section for the pharmacokinetic-pharmacodynamic analysis. Animals were anesthetized on day 30 using CO2 inhalation and terminated via induction of pneumothorax. Terminal blood samples were collected by cardiac puncture. […] Premier provided pathologists scoring of Hematoxylin and Eosin, and Masson’s Trichrome stained slides for renal fibrosis and glomerulonephritis. Each animal had two blocks processed, one for myocardium (not reported here) and one for kidney. All blocks were grossed, processed and had two slides cut from each block: one stained with Hematoxylin and Eosin and one stained with Masson’s Trichrome. For kidney sections, pathology involved glomerular lesions, interstitial inflammation and tubular lesions (collectively, “glomerulonephritis”). Fibrosis, both within glomeruli and within the interstitial space, was scored using the Masson’s Trichrome stain. […] All scoring was performed on blinded samples.
# [4] = steady state plasma exposure in the uni-nephrectomised rat study; format: in vivo
# Description: For the uni-nephrectomised rats on high-salt diet and aldosterone infusion study, plasma was sampled at 7 am, 11 am, 3 pm and 7 pm the day before termination and analysed for drug concentrations by LC-MS/MS. Two plasma samples were obtained per animal at either of the listed time points, yielding in total three or four drug exposure measurements per time point. The observed concentrations were used to estimate average drug exposure (Css,average) levels over a 24-hour period. To obtain representative drug exposure levels overnight, the 7 am drug samples were back-extrapolated to the 7 pm sample. A non-compartmental analys was applied, using the linear trapezoidal linear interpolation method, on the pooled data to obtain a daily average drug exposure levels (Css,average) for each dose level. Standard errors of the mean for Css,average were calculated for each sampling time point per dose level (four standard standard errors per dose levels) and were afterward averaged and multiplied with the estimated Css,average per dose level. The Css,average levels were converted to free steady state exposure levels (Cuss,average = Css,average × unbound fraction) to allow comparison of Cuss, average with in vitro potencies (Fold IC50 = Cuss,average / In vitro IC50). To assess exposure-response relationships data was visually explored.
# [5] = test system: uni-nephrectomised db/db mice; assay: organ protection in db/db uni-nephrectomised mice; format: in vivo; conditions: for plasma K^+ elevations: 4 weeks treatment; for FE K+ end / FE Na+ end / UAE w22 / p-K+ end / u-K+ end / u-Na+ end / u-Na+/K+ end: after 4 weeks treatment; for UAE w18: before treatment, 18 weeks of age; for increased injury (glomerular ECM scoring) from week 18 to 22: four week treatment
# Procedure: Obese diabetic male db/db mice (BKS.Cg-Dock7^m +/+ Lepr^db/J homozygotes) and their littermate male db/m mice were obtained from the Jackson Laboratory (Bar Harbor, ME, USA). […] Mice were subjected to right uninephrectomy at 8 weeks of age to hasten the development of diabetic nephropathy as described previously [43]. Db/m mice that received a uninephrectomy at 8 weeks of age served as the operation control. […] All surgery was performed under isoflurane anesthesia, and all efforts were made to minimize suffering.
# The blood glucose level and glycosylated hemoglobin (HbA1C) levels were monitored in tail blood samples using a blood glucose meter (Glucometer Elite XL, Bayer Healthcare, Elkhart, IN, USA) and the DC 2000+ HbA1C kit (Bayer Healthcare), respectively, before treatment and at the time of sacrifice. Twenty-four-hour urine was obtained from each mouse after placement in metabolic cages before treatment and at the time of sacrifice. Urine albumin was measured using the DC2000+ microalbumin reagent kit (Bayer Healthcare).
# Mice were sacrificed under isoflurane anesthesia. Blood samples were obtained by cardiac puncture for the measurements of plasma compound, K^+ and creatinine concentrations. Plasma K^+ levels were determined on a Radiometer ABL 700 blood gas analyser (Radiometer, Copnchagen DK). Plasma creatinine levels were determined by LC-MS/MS. Urine creatinine was measured by the Jaffe method (Creatinine FS, REF117119910021, DiaSys). Kidneys were perfused through the heart with cold PBS and then excised. One piece of renal cortex was fixed in 10% neutralized formalin for histological staining.
# Formalin-fixed renal cortex tissues were subsequently embedded in paraffin. Three-micrometer sections were cut from the tissue blocks and stained with periodic acid-Schiff (PAS). The PAS-positive glomerular matrix was quantitated in a blinded fashion by a computer-assisted method as previously described [43]. At least 20 glomeruli from each individual mouse were assessed. The PAS-positive material area in the mesangium was normalized by that of the total glomerular tuft where the percentage of mesangial matrix occupying each glomerulus area was rated. Glomerular sclerosis index was graded from 0 to 4+ as follows: 0 represents no lesion, 1+ represents sclerosis of <25% of the glomerulus, while 2 =, 3+ and 4+ represent sclerosis of 25% to 50%, >50% to 75%, and >75% of the glomerulus, respectively. A whole kidney average sclerosis index was obtained by averaging scores from all glomeruli on one section.
# [6] = unbound fraction in rat plasma; format: in vitro ADME
# [7] = terminal plasma drug levels in the db/db uni-nephrectomised mice study; format: in vivo; conditions: male, db/db (BKS.Cg-Dock7m +/+ Leprdb/J), mouse, oral, 100 mg kg^-1 d^-1, read-out: Cdrug
# Description: For the db/db uni-nephrectomised mice study, the terminal samples were used to assess drug levels (Cdrug).. To allow comparison of the exposure levels to in vitro mouse MR potencies (Fold IC50) the Cdrug was converted to free drug levels by the unbound fraction in plasma.
# [8] = unbound fraction in mouse plasma; format: in vitro ADME; conditions: db/db mice study
smiles,measurement,setting,value
"CNC(=O)C[C@H]1COc2cc(F)ccc2N1C(=O)c1ccc2c(c1)NC(=O)CO2 [AZD9977, (S)-2-(7-Fluoro-4-(3-oxo-3,4-dihydro-2H-benzo[b][1, 4]oxazine-6-carbonyl)-3,4-dihydro-2H-benzo[b][1, 4]oxazin-3-yl)-N-methylacetamide]",median AUC0-8hrs for AZD9977,"[1]; 100 mg kg-1 AZD9977 administered alone, oral",66 µM x hrs
same,median AUC0-8hrs for AZD9977,[1]; 100 mg kg-1 AZD9977 co-administered with eplerenone 30 mg kg-1,66 µM x hrs
same,Na^+ excretion caused by eplerenone,[2],attenuated the Na^+ excretion caused by eplerenone
same,UACR start,[3]; 10 mg kg-1 d-1 group,20 ± 7 µg/mg
same,UACR 2w,[3]; 10 mg kg-1 d-1 in diet,2133 ± 705 µg/mg
same,FE K+ end,[3]; 10 mg kg-1 d-1 in diet,28.0 ± 2.6%
same,UACR end,[3]; 10 mg kg-1 d-1 in diet,5604 ± 689 µg/mg
same,p-K+ end,[3]; 10 mg kg-1 d-1 in diet,4.9 ± 0.2 mM
same,u-K+ end,[3]; 10 mg kg-1 d-1 in diet,10.2 ± 0.4 mmol/24h
same,u-Na+ end,[3]; 10 mg kg-1 d-1 in diet,23.8 ± 1.0 mmol/24h
same,u-Na+/K+ end,[3]; 10 mg kg-1 d-1 in diet,2.34 ± 0.04
same,UACR start,[3]; 30 mg kg-1 d-1 group,13 ± 3 µg/mg
same,UACR 2w,[3]; 30 mg kg-1 d-1 in diet,1200 ± 569 µg/mg
same,FE K+ end,[3]; 30 mg kg-1 d-1 in diet,27.2 ± 1.2%
same,UACR end,[3]; 30 mg kg-1 d-1 in diet,3076 ± 756 µg/mg
same,p-K+ end,[3]; 30 mg kg-1 d-1 in diet,5.0 ± 0.3 mM
same,u-K+ end,[3]; 30 mg kg-1 d-1 in diet,10.6 ± 0.5 mmol/24h
same,u-Na+ end,[3]; 30 mg kg-1 d-1 in diet,26.6 ± 0.9 mmol/24h
same,u-Na+/K+ end,[3]; 30 mg kg-1 d-1 in diet,2.53 ± 0.04
same,UACR start,[3]; 100 mg kg-1 d-1 group,13 ± 2 µg/mg
same,UACR 2w,[3]; 100 mg kg-1 d-1 in diet,148 ± 34 µg/mg
same,FE K+ end,[3]; 100 mg kg-1 d-1 in diet,20.1 ± 0.7%
same,UACR end,[3]; 100 mg kg-1 d-1 in diet,900 ± 83 µg/mg
same,p-K+ end,[3]; 100 mg kg-1 d-1 in diet,5.2 ± 0.1 mM
same,u-K+ end,[3]; 100 mg kg-1 d-1 in diet,9.2 ± 0.5 mmol/24h
same,u-Na+ end,[3]; 100 mg kg-1 d-1 in diet,24.7 ± 1.1 mmol/24h
same,u-Na+/K+ end,[3]; 100 mg kg-1 d-1 in diet,2.71 ± 0.05
same,average renal pathology score,[3],Reduction
same,UACR compared to vehicle treated animals,[3],dose dependently reduced
same,"Css, average",[4]; 10 mg kg-1 d-1 in diet,70 ± 10 nM
same,"Css, average",[4]; 30 mg kg-1 d-1 in diet,170 ± 30 nM
same,"Css, average",[4]; 100 mg kg-1 d-1 in diet,460 ± 60 nM
same,plasma K^+ elevations,[5],did not cause plasma K^+ elevations
same,FE K+ end,[5],20.1 ± 0.9%
same,FE Na+ end,[5],0.24 ± 0.01%
same,UAE w22,[5],588 ± 80 µg 24h-1
same,p-K+ end,[5],3.9 ± 0.2 mM
same,u-K+ end,[5],0.97 ± 0.10 mmol/24h
same,u-Na+ end,[5],0.45 ± 0.05 mmol/24h
same,u-Na+/K+ end,[5],0.47 ± 0.01
same,UAE w18,[5],797 ± 169 µg 24h-1
same,increased injury (glomerular ECM scoring) from week 18 to 22,[5],prevented
same,urine albumin excretion (UAE) compared to vehicle treatment,[5]; four week treatment from 18 weeks of age,reduced the urine albumin excretion
same,fraction unbound,[6],0.57
same,concentration at 4 weeks,[7],350 ± 40 nM
same,fraction unbound,[8],0.55
COC(=O)[C@@H]1CC2=CC(=O)CC[C@]2(C)[C@@]23O[C@@H]2C[C@@]2(C)[C@@H](CC[C@@]24CCC(=O)O4)[C@H]13 [eplerenone],median AUC0-8hrs for eplerenone,"[1]; 30 mg kg-1 eplerenone administered alone, oral",26 µM x hrs
same,median AUC0-8hrs for eplerenone,[1]; 30 mg kg-1 eplerenone co-administered with AZD9977 100 mg kg-1,40 µM x hrs
same,UACR start,[3]; 10 mg kg-1 d-1 group,11 ± 2 µg/mg
same,UACR 2w,[3]; 10 mg kg-1 d-1 in diet,408 ± 173 µg/mg
same,FE K+ end,[3]; 10 mg kg-1 d-1 in diet,25.0 ± 1.3%
same,UACR end,[3]; 10 mg kg-1 d-1 in diet,1689 ± 394 µg/mg
same,p-K+ end,[3]; 10 mg kg-1 d-1 in diet,4.8 ± 0.2 mM
same,u-K+ end,[3]; 10 mg kg-1 d-1 in diet,10.1 ± 0.5 mmol/24h
same,u-Na+ end,[3]; 10 mg kg-1 d-1 in diet,25.4 ± 1.1 mmol/24h
same,u-Na+/K+ end,[3]; 10 mg kg-1 d-1 in diet,2.51 ± 0.05
same,UACR start,[3]; 30 mg kg-1 d-1 group,10 ± 2 µg/mg
same,UACR 2w,[3]; 30 mg kg-1 d-1 in diet,88 ± 23 µg/mg
same,FE K+ end,[3]; 30 mg kg-1 d-1 in diet,23.0 ± 1.0%
same,UACR end,[3]; 30 mg kg-1 d-1 in diet,456 ± 66 µg/mg
same,p-K+ end,[3]; 30 mg kg-1 d-1 in diet,5.1 ± 0.2 mM
same,u-K+ end,[3]; 30 mg kg-1 d-1 in diet,9.6 ± 0.3 mmol/24h
same,u-Na+ end,[3]; 30 mg kg-1 d-1 in diet,26.7 ± 0.9 mmol/24h
same,u-Na+/K+ end,[3]; 30 mg kg-1 d-1 in diet,2.77 ± 0.03
same,average renal pathology score,[3],Reduction
same,UACR compared to vehicle treated animals,[3],dose dependently reduced
same,"Css, average",[4]; 10 mg kg-1 d-1 in diet,90 ± 20 nM
same,"Css, average",[4]; 30 mg kg-1 d-1 in diet,300 ± 90 nM
same,plasma K^+ elevations,[5],did not cause plasma K^+ elevations
same,FE K+ end,[5],22.3 ± 1.0%
same,FE Na+ end,[5],0.27 ± 0.02%
same,UAE w22,[5],569 ± 76 µg 24h-1
same,p-K+ end,[5],3.8 ± 0.1 mM
same,u-K+ end,[5],0.85 ± 0.10 mmol/24h
same,u-Na+ end,[5],0.40 ± 0.05 mmol/24h
same,u-Na+/K+ end,[5],0.48 ± 0.02
same,UAE w18,[5],892 ± 186 µg 24h-1
same,increased injury (glomerular ECM scoring) from week 18 to 22,[5],prevented
same,fraction unbound,[6],0.66
same,concentration at 4 weeks,[7],150 ± 20 nM
same,fraction unbound,[8],0.69

# Reference: article PMC5825103 (PLoS ONE, 2018)
